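Five compound concentrations were applied to cells in 96-well plates for 48 hours; endpoints were derived by simple linear interpolation of the resulting dose-response curve. Definition used: TGI = concentration required for complete inhibition of growth.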
Tests used:
Test in all cases: NCI-60 cell line screen, 48 h
[1] = system: SNB-75 CNS
[2] = system: NCI-H460 lung
[3] = system: HCT-116 colon
[4] = system: HOP-92 NSCLC
[5] = system: K-562 leukemia
[6] = system: SW-620 colon
[7] = system: NCI-H226 lung
[8] = system: NCI-H23 lung
[9] = system: SF-295 CNS
[10] = system: UACC-257 melanoma
[11] = system: MOLT-4 leukemia
[12] = system: HT29 colon
[13] = system: M14 melanoma
[14] = system: CAKI-1 renal
[15] = system: OVCAR-5 ovarian
[16] = system: COLO 205 colon
[17] = system: NCI/ADR-RES ovarian
[18] = system: TK-10 renal
[19] = system: MDA-N
[20] = system: SN12C renal
[21] = system: SR leukemia
[22] = system: SF-268 CNS
[23] = system: SK-OV-3 ovarian
[24] = system: LOX IMVI melanoma
[25] = system: OVCAR-8 ovarian
[26] = system: HOP-62 NSCLC
[27] = system: UO-31 renal
[28] = system: OVCAR-3 ovarian
[29] = system: SF-539 CNS
[30] = system: SK-MEL-5 melanoma
[31] = system: SNB-19 CNS
[32] = system: SK-MEL-28 melanoma
[33] = system: T-47D breast
[34] = system: RPMI-8226 leukemia
[35] = system: U251 CNS
[36] = system: SK-MEL-2 melanoma
[37] = system: UACC-62 melanoma
[38] = system: DU-145 prostate
[39] = system: A498 renal
[40] = system: CCRF-CEM leukemia
[41] = system: MALME-3M melanoma
[42] = system: HL-60(TB) leukemia
[43] = system: HCC-2998 colon
[44] = system: 786-0 renal
[45] = system: MDA-MB-231 breast
[46] = system: EKVX NSCLC
[47] = system: NCI-H522 lung
[48] = system: A549 NSCLC
[49] = system: MDA-MB-435
[50] = system: BT-549 breast
[51] = system: ACHN renal
[52] = system: HS 578T breast
[53] = system: OVCAR-4 ovarian
[54] = system: KM12 colon
[55] = system: PC-3 prostate
[56] = system: IGROV1 ovarian
[57] = system: RXF 393 renal
[58] = system: HCT-15 colon
[59] = system: MCF7 breast

`COc1ccc(OC)c(CCc2cc(OC)ccc2OC)c1` was tested, and the TGI [1] was 9.07 µM, the TGI [2] was greater than 10 µM and the TGI [3] was greater than 10 µM. For the same molecule, the TGI [4] was greater than 10 µM, the TGI [5] was greater than 10 µM and the TGI [6] was greater than 10 µM. For the same molecule, the TGI [7] was greater than 10 µM, the TGI [8] was greater than 10 µM and the TGI [9] was greater than 7.31 µM. The TGI [10] was greater than 10 µM, the TGI [11] was greater than 10 µM and the TGI [12] was greater than 10 µM. It also gave a TGI [13] greater than 10 µM, a TGI [14] greater than 10 µM and a TGI [15] greater than 10 µM. For the same molecule, the TGI [16] was 4.88 µM, the TGI [17] was greater than 6.02 µM and the TGI [18] was greater than 10 µM. The TGI [19] was 1.64 µM, the TGI [20] was greater than 10 µM and the TGI [21] was greater than 10 µM. It also gave a TGI [22] greater than 10 µM, a TGI [23] greater than 10 µM and a TGI [24] greater than 10 µM. It also gave a TGI [25] greater than 10 µM, a TGI [26] greater than 10 µM and a TGI [27] greater than 10 µM. For the same molecule, the TGI [28] was 2.09 µM, the TGI [29] was 4.76 µM and the TGI [30] was greater than 9.35 µM. The TGI [31] was greater than 10 µM, the TGI [32] was greater than 10 µM and the TGI [33] was greater than 10 µM. It also gave a TGI [34] greater than 10 µM, a TGI [35] greater than 10 µM and a TGI [36] greater than 8.88 µM. It also gave a TGI [37] greater than 10 µM, a TGI [38] greater than 10 µM and a TGI [39] greater than 10 µM. It also gave a TGI [40] greater than 10 µM, a TGI [41] greater than 6.95 µM and a TGI [42] of 5.28 µM. For the same molecule, the TGI [43] was greater than 10 µM, the TGI [44] was greater than 10 µM and the TGI [45] was greater than 10 µM. The TGI [46] was greater than 10 µM, the TGI [47] was greater than 9.66 µM and the TGI [48] was greater than 10 µM. For the same molecule, the TGI [49] was 0.49 µM, the TGI [50] was greater than 10 µM and the TGI [51] was greater than 10 µM. It also gave a TGI [52] of 7.29 µM, a TGI [53] greater than 10 µM and a TGI [54] greater than 10 µM. The TGI [55] was greater than 10 µM, the TGI [56] was greater than 10 µM and the TGI [57] was greater than 8.51 µM. The TGI [58] was greater than 10 µM and the TGI [59] was greater than 10 µM.
Molecule `CC(=O)Nc1ccc(S(=O)(=O)/N=C2\C=CC(=O)c3ccccc32)cc1` has a TGI [1] of 14.1 µM, a TGI [2] of 28.5 µM and a TGI [3] of 22.8 µM. The TGI [4] was 21.7 µM, the TGI [5] was 9.13 µM and the TGI [6] was 47.6 µM. It also gave a TGI [7] of 18.1 µM, a TGI [8] of 13.3 µM and a TGI [9] of 15.1 µM. For the same molecule, the TGI [10] was 12.4 µM, the TGI [11] was 1.25 µM and the TGI [12] was 33.7 µM. For the same molecule, the TGI [13] was 11.1 µM, the TGI [14] was 35.7 µM and the TGI [15] was 20.6 µM. The TGI [16] was 26.9 µM, the TGI [17] was 22.9 µM and the TGI [18] was 36.9 µM. It also gave a TGI [19] of 3.59 µM, a TGI [20] of 11.9 µM and a TGI [21] of 11.8 µM. For the same molecule, the TGI [22] was 17.2 µM, the TGI [23] was 33.8 µM and the TGI [24] was 15.2 µM. It also gave a TGI [25] of 9.13 µM, a TGI [26] of 22.8 µM and a TGI [27] of 20 µM. For the same molecule, the TGI [28] was 10.3 µM, the TGI [29] was 15.6 µM and the TGI [30] was 8.7 µM. It also gave a TGI [31] of 28.3 µM, a TGI [32] of 24.4 µM and a TGI [33] greater than 83 µM. It also gave a TGI [34] of 25.9 µM, a TGI [35] of 14.2 µM and a TGI [36] of 32.1 µM. For the same molecule, the TGI [37] was 12.2 µM, the TGI [38] was greater than 57.2 µM and the TGI [39] was 21.2 µM. For the same molecule, the TGI [40] was 27.7 µM, the TGI [41] was 9.66 µM and the TGI [42] was 11.2 µM. It also gave a TGI [43] of 10.7 µM, a TGI [44] of 26.4 µM and a TGI [45] of 10.7 µM. For the same molecule, the TGI [46] was 22 µM, the TGI [47] was 29 µM and the TGI [48] was 29.7 µM. The TGI [49] was 3.36 µM, the TGI [50] was 25.3 µM and the TGI [51] was 16.4 µM. For the same molecule, the TGI [52] was 26.1 µM, the TGI [53] was 8.6 µM and the TGI [54] was 40.5 µM. The TGI [55] was 15.4 µM, the TGI [56] was 10.7 µM and the TGI [57] was 15.6 µM. For the same molecule, the TGI [58] was 16.1 µM and the TGI [59] was 12.2 µM.

From PubChem BioAssay (NCI)
